# Assay results from PubChem BioAssay (NCI).
#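 Compound exposure: 48 hours, 5 concentrations, 96-well plates. GI50 = concentration required for 50% inhibition of growth. Definition used: TGI = concentration required for complete inhibition of growth.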
# Tests used:
# Experiment in all cases: NCI tumour cell line growth inhibition, 48 h
# IGROV1 ovarian = tested on: IGROV1 ovarian
# 786-0 renal = tested on: 786-0 renal
# CAKI-1 renal = tested on: CAKI-1 renal
# RXF 393 renal = tested on: RXF 393 renal
# UACC-62 melanoma = tested on: UACC-62 melanoma
# NCI-H460 lung = tested on: NCI-H460 lung
# ACHN renal = tested on: ACHN renal
# EKVX NSCLC = tested on: EKVX NSCLC
# MOLT-4 leukemia = tested on: MOLT-4 leukemia
# SR leukemia = tested on: SR leukemia
Compound,TGI (IGROV1 ovarian) [µM],TGI (786-0 renal) [µM],TGI (CAKI-1 renal) [µM],TGI (RXF 393 renal) [µM],TGI (UACC-62 melanoma) [µM],TGI (NCI-H460 lung) [µM],TGI (ACHN renal) [µM],TGI (EKVX NSCLC) [µM],TGI (MOLT-4 leukemia) [µM],GI50 (786-0 renal) [µM],GI50 (NCI-H460 lung) [µM],TGI (SR leukemia) [µM],GI50 (CAKI-1 renal) [µM],GI50 (EKVX NSCLC) [µM],GI50 (IGROV1 ovarian) [µM],GI50 (MOLT-4 leukemia) [µM],GI50 (UACC-62 melanoma) [µM],GI50 (SR leukemia) [µM],GI50 (ACHN renal) [µM],GI50 (RXF 393 renal) [µM]
O=C(Nc1ccc(Cl)cc1Cl)C(=O)C(C(=O)c1ccc2ccccc2c1)C1OC(=O)c2ccccc21 (centres undefined),57.7,19.5,83,11.7,46.7,17.3,> 100,35.9,,,,,,,,,,,,
COC(=O)C1C(O)CC(c2ccccn2)N(Cc2ccccc2)C1c1ccccn1 (centres undefined),> 100,> 100,> 100,> 100,> 100,> 100,> 100,> 100,> 100,,,,,,,,,,,
O=C(O)COc1ccc(O)c2c1C(=O)CCCC2=O,> 100,> 100,> 100,,> 100,> 100,> 100,> 100,> 100,,,,,,,,,,,
COc1ccc(-c2cc(=O)c3c(C)cc(C)nc3[nH]2)cc1,84.8,> 100,82.9,> 100,46.6,> 100,> 100,> 100,42.9,58.8,40.9,,,,,,,,,
OCCCOC(c1ccccc1)(c1ccccc1)c1ccccc1,> 100,> 100,> 100,,> 100,> 100,> 100,,> 100,,,> 100,,,,,,,,
O=CC(O)C(O)C(O)C(O)C(=O)NCCCCCCCCCCCCNC(=O)C(O)C(O)C(O)C(O)C=O (centres undefined),> 100,> 100,,> 100,> 100,> 100,> 100,> 100,> 100,,,> 100,,,,,,,,
CC(=O)/C(=C/n1c(=S)[nH]c2ccccc21)C(=O)Nc1ccccc1C,> 100,> 100,> 100,> 100,,> 100,> 100,> 100,> 100,,,,,,,,,,,
CC(=O)NNc1nc(C)c(C(=O)NNC(=O)C(=O)Nc2c(C)cccc2C)s1,> 100,> 100,> 100,88.2,> 100,> 100,> 100,> 100,80.1,,,,,,,,,,,
COc1cc(/C=C\c2ccc(C)cc2)cc(OC)c1OC,> 100,25.2,> 53.8,,,0.232,> 100,> 100,0.51,,,0.0917,0.0235,< 0.022,,,,,,
CC(=O)N[C@@H]1C(O)CN2C(=O)C(=O)O[C@H](C(O)CO)[C@@H]12 (some centres undefined),> 100,> 100,,> 100,,> 100,> 100,> 100,> 100,,,,,,,,,,,
Cn1nc(-c2ccccc2)c(C(=O)/C=C/c2ccc(F)cc2)c(N2CCCCC2)c1=O,38.2,18,27.3,9.86,30,18.1,27.7,72.3,7.09,,,,,,,,,,,
O=C(/C(=C\C(=O)c1cccs1)c1ccsc1)c1ccc(Br)cc1,> 100,> 100,> 100,,> 100,> 100,> 100,> 100,> 100,,,> 100,,,,,,,,
COc1cc(CCN)c2c(c1OC)SSSSS2,1.55,2.22,1.11,,2.97,2.11,1.61,2.59,> 100,1.04,0.767,0.679,0.503,1.26,0.336,0.0646,1.37,0.113,0.45,
CCCNCCCC(NC(C)=O)C(=O)NCc1ccccc1 (centres undefined),> 100,> 100,> 100,> 100,> 100,> 100,> 100,> 100,> 100,,,,,,,,,,,
CCOC(=O)/C(O)=C/c1cc(OC)cc(=O)o1,> 100,> 100,> 100,> 100,> 100,> 100,> 100,> 100,> 100,,,,,,,,,,,
NCCCOCC(=O)O,> 100,> 100,,> 100,> 100,,> 100,> 100,> 100,,,> 100,,,,,,,,
Cc1c(S(C)(=O)=O)c(-c2cc(F)cc(N3CCN(c4ccc(NS(=O)(=O)c5ccc(N[C@H](CCN6CCC(C(=O)OCCCP(=O)(O)O)CC6)CSc6ccccc6)c(S(=O)(=O)C(F)(F)F)c5)cc4)CC3)c2)c(-c2ccc(Cl)cc2)n1C(C)C,> 100,> 100,> 100,> 100,> 100,> 100,> 100,> 100,,> 100,> 100,,> 100,> 100,> 100,,> 100,,> 100,> 100
Nc1nc2c(c(=O)[nH]1)NC(CO)CN2 (centres undefined),> 100,> 100,,> 100,> 100,> 100,> 100,> 100,> 100,,,,,,,,,,,
O=C1C=C(NCCNC(=S)Nc2ccccc2)c2nccc3c2c1nc1ccccc13,> 100,> 100,> 100,,73,> 100,> 100,> 100,,94.5,29.4,> 100,33.6,> 100,56.8,,20.6,2.97,38.6,
Cc1ccc(S(=O)(=O)NCCNC2=CC(=O)c3nc4ccccc4c4ccnc2c34)cc1,51.9,50.2,48.3,,44.5,56.5,97,89,,20.6,15.7,> 100,20.5,32.3,19.9,,20.6,4.77,22.3,
CCOC(=O)C1=C(c2ccccc2)N(C)c2ccccc2S1,> 100,> 100,> 100,,53.2,63.6,58.5,> 100,> 100,,,> 100,,,,,,,,
